From article PMC7504215, “Copper(II) Complexes with Mixed Heterocycle Ligands as Promising Antibacterial and Antitumor Species” (Molecules, 2020) come the findings set out here.

The test system of one data set is sod1Δ cells. The data set is classed as cell-based, Saccharomyces cerevisiae. Particulars: sod1Δ cells lacking Cu/Zn-superoxide dismutase Sod1. The protocol:
(§1) The Saccharomyces cerevisiae laboratory strain BY4741 (MATa; his3Δ1; leu2Δ0; met15Δ0; ura3Δ0), considered wild type (WT), and the isogenic strains sod1Δ and sod2Δ lacking the genes SOD1 (encoding Cu/Zn-superoxide dismutase) and SOD2 (encoding Mn-superoxide dismutase) were purchased from EUROSCARF (Frankfurt, Germany). Cells were maintained and manipulated and grown in YPD medium (1% w/v yeast extract, 2% w/v peptone, 2% w/v glucose; 2% w/v agar was added for solid media). Complexes were added to autoclaved media from DMSO sterile stocks (10 mM). To determine the effect of compounds on yeast growth, a fresh overnight pre-culture was 10^3-fold diluted in YPD and incubated (200 rpm, 30 °C) until the culture reached a density of 5 × 10^5 cells/mL. At this point, the compounds were added to the desired concentrations, and cell proliferation was monitored at 660 nm in a 96-well multi-scanner autoreader plate reader equipped with a thermostat and shaker (Varioskan Thermo Fischer Scientific, Vantaa, Finland). The uptake of compounds by yeast cells was determined indirectly by measuring the increase of the total cellular copper content normalized to the total cellular protein determined by Bradford assay. All determinations were done on three biological replicates. The IC50 was calculated by nonlinear regression analysis using the Graphpad Prism software.

For the next data set, the system named is sod2Δ cells. The data set is classed as cell-based, Saccharomyces cerevisiae. The following applies: sod2Δ cells lacking Mn-superoxide dismutase Sod2. The protocol: as §1
A further data set concerns λ-DNA. Kind of data set: UV-Vis absorption titration with DNA. Particulars: 3 μM complex, increasing λ-DNA, Tris/HCl/NaCl buffer pH 8. The data set is classed as binding, bacteriophage lambda. The protocol:
To determine whether compounds have the capacity to interact with DNA, 48,500 base-pairs of genomic DNA from bacteriophage lambda (λ-DNA, Promega. Madison USA) was used. A stock solution of 10 µM λ-DNA (base-pair concentration) was prepared in 10 mM Tris/HCl buffer containing 1 mM NaCl, pH 8.
The UV-Vis absorption titration experiments were done maintaining constant the complex concentration (3 µM) and increasing the concentration of λ-DNA, in Tris-HCl/NaCl buffer solution, at room temperature, until a saturation state was achieved. After DNA addition, the solutions were allowed to equilibrate for 5 min at room temperature. The UV-Vis absorption spectra were recorded with a Jasco V-630 spectrophotometer, using a 10 mm quartz cell. Stock solutions of compounds were prepared in DMSO (1 mM) and diluted to 3 µM in 10 mM Tris/HCl containing 1 mM NaCl, pH 8.

The test system of data set [1] is B16 (melanoma) tumor cells. Kind of data set: MTT cell viability assay. In kind it is cell-based, Mouse. On the procedure: The cytotoxicity of ligand and copper(II) complexes was tested on normal BJ cell as well as on B16 (melanoma) tumor cells, which were grown for 48 h in culture medium containing the tested complexes in 0–25 μg/mL concentration range.
Human fibroblast cells (BJ-ATCC CRL-2522, Manassas, VA, USA) were grown in minimal essential medium (MEM) supplemented with 2 mM L-Glutamine, 10% fetal calf serum (FCS), 100 units/mL of penicillin and 100 µg/mL of streptomycin at 37 °C in a humidified incubator under an atmosphere containing 5% CO2. Mouse melanoma cells (B16-ATCC CRL-6475, Manassas, VA, USA) were grown in DMEM (Dulbecco’s Modified Eagle Medium) supplemented with similar reagents as MEM. All cell cultivation media and reagents were purchased from Biochrom AG (Berlin, Germany) and Sigma-Aldrich (Darmstadt, Germany).
Cell viability was evaluated using 3-(4,5-dimethylthiazol-2-yl)-2,5-diphenyltetrazolium bromide (MTT) assay, as described previously. First, the cells were seeded in 96-well plates (20,000 cells/well) and cultured for 24 h in medium. After overnight incubation, the medium was changed and the investigated sample in concentration varying from […] was added for 24 h. The negative control was represented by cells cultivated in medium without the investigated compounds. Following incubation, the medium was changed and the MTT solution was added to each well to a final concentration of 1 mg/mL and incubated for additional 4 h, at 37 °C. Finally, the medium was collected and DMSO was used to dissolve the insoluble formazan product. The absorbance of the samples was recorded at 570 nm using a plate reader Mithras 940 (Berthold). The data were corrected for the background and the percentage of viable cells was obtained using the equation:Cell viability = [(A570 of treated cells)/(A570 of untreated cells)] × 100%
The half-maximal inhibitory concentration (IC50) was determined by fitting the data with a logistical sigmoidal equation using the software Origin 8.1 from Microcal Inc. (Los Angeles, CA, USA).
For orientation: Tetrazolium assays rely on reduction of a dye to a coloured formazan, in cell work by metabolically active cells.

A further data set has as its system plasmid pRSII325. Kind of data set: Nuclease activity assay, gel electrophoresis. In kind it is biochemical. Particulars: for Nuclease activity in the presence of H2O2: 3 µM compound + 1 mM H2O2, 1 h at 37 °C; for Nuclease activity in the presence of ascorbate: 3 µM compound + 1 mM ascorbate; for Nuclease activity in the presence of ascorbate / Nuclease activity, compound alone: 1 h at 37 °C; for Nuclease activity, compound alone: 3 µM compound, no activating agent. On the procedure:
The nuclease activity of the compounds was determined using plasmid pRS325II DNA, which was a gift from Steven Haase (Addgene plasmid #35467, 6835 base pairs). The plasmid was amplified in Escherichia coli by transforming One Shot® TOP10 chemically competent E. coli from Invitrogen, Thermo Fisher Scientific (Vilnius, Lithuania). Plasmid was isolated from positive colonies using a PureLink™ HiPure Plasmid Miniprep Kit from Invitrogen, Thermo Fisher Scientific (Vilnius, Lithuania). Plasmid (200 ng/sample) was exposed to 3 µM compounds in the presence of 1 mM hydrogen peroxide (to exploit the Cu(II/III) redox couple) or 1 mM ascorbic acid (to exploit the Cu(I/II) redox couple). The DNA cleavage experiments for the complexes were done in a 9/1 (v/v) ratio of 50 mM Tris-HCl buffer, pH 8, and DMSO. The samples were incubated for 1 h at 37 °C before a bromophenol blue/xylene cyanol-based loading dye (Roth, Germany) was added to the samples. Partial cleavage of the plasmid to linear form was done with the restriction enzyme EcoRI (Promega, USA) by incubation for 5 min at 37 °C. The samples were loaded on a 1% (w/v) agarose gel containing 1 μg/mL EtBr in 1 × TAE (Tris–acetic acid–EDTA) buffer. Electrophoresis was performed at 100 V for 45 min in 1 × TAE buffer. The images of the fluorescent ethidium bromide-stained gels were captured using a gel documentation system (Doc-Print II, Vilber Lourmat, France). The cleavage experiments were done six times, with similar results. One representative gel is shown.

The mark [2] stands for this setting: B16 cells, 48 h, MTT, read-out: IC50 B16 Cells 48 h.

pIC50: −log10 of the molar value. Like-named read-outs stand apart in the source and are kept apart here.

In general, pIC50 refers to the IC50 on a negative log10 scale, so that one unit is a factor of ten. On to `Cc1cc(-c2ccccc2)nc2ncnn12.[Cu+2].[O-][Cl+3]([O-])([O-])[O-].[O-][Cl+3]([O-])([O-])[O-].c1cnc2c(c1)ccc1cccnc12.c1cnc2c(c1)ccc1cccnc12` [(2), [Cu(phen)2(pmtp)](ClO4)2], for which the “Toxicity compared with WT yeast” value in the data set on sod1Δ cells is recorded as “even more toxic”. Also, in the data set with sod2Δ cells, the “Toxicity compared with WT yeast” value is recorded as “even more toxic”. In addition, the “Change of UV absorption spectrum on binding to λ-DNA” value in the data set with λ-DNA is “hypochromism observed for the band at 270 nm”. The “IC50 B16 Cells 24 h” value in data set [1] (B16 cells, 24 h, MTT) is recorded as 6.25 µg/mL. Further, in data set [1] (B16 cells, 24 h, MTT, read-out: IC50 B16 Cells 24 h), the pIC50 is 5.12. In data set [1] (B16 cells, 48 h, MTT), the “IC50 B16 Cells 48 h” value came out at 3.72 µg/mL. Moreover, in data set [1] (setting [2]), the pIC50 was 5.40. Besides, in the data set on plasmid pRSII325, the “Nuclease activity in the presence of H2O2” value was “led to DNA degradation”; the “Nuclease activity in the presence of ascorbate” value is “led to DNA degradation”; the “Nuclease activity, compound alone” value is reported as “caused plasmid relaxation to the NC form”.
For `Cc1cc(-c2ccccc2)nc2ncnn12.[Cu+2].[O-][Cl+3]([O-])([O-])[O-].[O-][Cl+3]([O-])([O-])[O-].c1ccc(-c2ccccn2)nc1.c1ccc(-c2ccccn2)nc1` [(1), [Cu(bpy)2(pmtp)](ClO4)2], the “Toxicity compared with WT yeast” value with sod1Δ cells is listed as “even more toxic”. The “Toxicity compared with WT yeast” value in the data set with sod2Δ cells was “even more toxic”. In addition, in the data set with λ-DNA, the “Change of UV absorption spectrum on binding to λ-DNA” value is on record as “decrease in the absorption intensity of the band located at 290 nm”. In addition, the “Effect on viability of B16 cells” value in data set [1] (24 h of treatment, 0–25 μg/mL) is “did not affect the viability of B16 cells”. The “IC50 B16 Cells 48 h” value in data set [1] (B16 cells, 48 h, MTT) amounted to 15.46 µg/mL. The pIC50 in data set [1] (setting [2]) is 4.70. Besides, in the data set with plasmid pRSII325, the “Nuclease activity in the presence of H2O2” value is reported as “led to DNA degradation”; the “Nuclease activity in the presence of ascorbate” value is “led to DNA degradation”; the “Nuclease activity, compound alone” value is reported as “caused plasmid relaxation to the NC form”.
